{
  "source": "patent US20200222474A1",
  "about": "“COMPOSITIONS AND METHODS FOR INCREASING PHYTOCHEMICAL BIOAVAILABLITY AND BIOACTIVITY” (North Carolina State University, priority 2017, published 2020)",
  "tested_on": "L. acidophilus NCFM",
  "experiment": "RNA-seq transcriptional analysis of L. acidophilus NCFM growing on plant glycosides",
  "assay_type": "cell-based, Lactobacillus acidophilus",
  "key": {"[1]": {"conditions": "LBA0329 Putative cell division protein, COG D"}, "[2]": {"conditions": "LBA0466 Hypothetical protein, COG C"}, "[3]": {"conditions": "LBA0500 MSM operon repressor, COG K"}, "[4]": {"conditions": "LBA0545 Hypothetical protein, COG L"}, "[5]": {"conditions": "LBA0547 Putative site-specific recombinase, COG L"}, "[6]": {"conditions": "LBA0573 Putative transcriptional regulator, COG K"}, "[7]": {"conditions": "LBA0607 Putative transcriptional regulator, COG K"}, "[8]": {"conditions": "LBA0672 Putative phosphate starvation inducible protein stress related, COG J"}, "[9]": {"conditions": "LBA0753 Multi-drug-type permease, COG GEPR"}, "[10]": {"conditions": "LBA0886 Sugar kinase-putative transcriptional regulator, COG KG"}, "[11]": {"conditions": "LBA0887 Hypothetical protein, COG C"}, "[12]": {"conditions": "LBA0897 Putative Cro-like protein, COG K"}, "[13]": {"conditions": "LBA0910 L-lactate dehydrogenase, COG C"}, "[14]": {"conditions": "LBA1021 Putative transcriptional regulator, COG K"}, "[15]": {"conditions": "LBA1220 Pyridine mercuric reductase, COG C"}, "[16]": {"conditions": "LBA1392 Mucus binding protein precursor Mub, COG J"}, "[17]": {"conditions": "LBA1411 Fumarate reductase flavoprotein subunit, COG CS"}, "[18]": {"conditions": "LBA1436 Glycerol uptake facilitator protein, COG G"}, "[19]": {"conditions": "LBA1457 Galactose-1-epimerase, COG G"}, "[20]": {"conditions": "LBA1458 Galactose-1-phosphate uridylyltransferase, COG G"}, "[21]": {"conditions": "LBA1462 Beta-galactosidase, COG G"}, "[22]": {"conditions": "LBA1463 Lactose permease, COG G"}, "[23]": {"conditions": "LBA1465 Transcription repressor of beta-galactosidasegene, COG K"}, "[24]": {"conditions": "LBA1467 Beta-galactosidase large subunit (lactase), COG G"}, "[25]": {"conditions": "LBA1468 Beta-galactosidase small subunit, COG G"}},
  "data": [
    {"smiles": "OCc1ccccc1O[C@@H]1O[C@H](CO)[C@@H](O)[C@H](O)[C@H]1O", "note": "[Salicin]", "values": [
      {"measurement": "Log2 differential normalized TPM ratio compared to glucose", "setting": "LBA0016 Fructokinase, COG KG", "result": 1.7},
      {"measurement": "Log2 differential normalized TPM ratio compared to lactose", "setting": "LBA0016 Fructokinase, COG KG", "result": 0.5},
      {"measurement": "Transcripts per million (rpm)", "setting": "LBA0016 Fructokinase, COG KG", "result": 300.8, "unit": "rpm"},
      {"measurement": "Log2 differential normalized TPM ratio compared to glucose", "setting": "[1]", "result": 0.4},
      {"measurement": "Log2 differential normalized TPM ratio compared to lactose", "setting": "[1]", "result": 0},
      {"measurement": "Transcripts per million (rpm)", "setting": "[1]", "result": 22.1, "unit": "rpm"},
      {"measurement": "Log2 differential normalized TPM ratio compared to glucose", "setting": "[2]", "result": 1.3},
      {"measurement": "Log2 differential normalized TPM ratio compared to lactose", "setting": "[2]", "result": -0.2},
      {"measurement": "Transcripts per million (rpm)", "setting": "[2]", "result": 238.1, "unit": "rpm"},
      {"measurement": "Log2 differential normalized TPM ratio compared to glucose", "setting": "[3]", "result": 1.4},
      {"measurement": "Log2 differential normalized TPM ratio compared to lactose", "setting": "[3]", "result": "−0.3"},
      {"measurement": "Transcripts per million (rpm)", "setting": "[3]", "result": 138.7, "unit": "rpm"},
      {"measurement": "Log2 differential normalized TPM ratio compared to glucose", "setting": "[4]", "result": 1.8},
      {"measurement": "Log2 differential normalized TPM ratio compared to lactose", "setting": "[4]", "result": "−0.3"},
      {"measurement": "Transcripts per million (rpm)", "setting": "[4]", "result": 259, "unit": "rpm"},
      {"measurement": "Log2 differential normalized TPM ratio compared to glucose", "setting": "[5]", "result": 1.5},
      {"measurement": "Log2 differential normalized TPM ratio compared to lactose", "setting": "[5]", "result": "−0.3"},
      {"measurement": "Transcripts per million (rpm)", "setting": "[5]", "result": 32.5, "unit": "rpm"},
      {"measurement": "Log2 differential normalized TPM ratio compared to glucose", "setting": "[6]", "result": "−1.1"},
      {"measurement": "Log2 differential normalized TPM ratio compared to lactose", "setting": "[6]", "result": "−1.2"},
      {"measurement": "Transcripts per million (rpm)", "setting": "[6]", "result": 43.7, "unit": "rpm"},
      {"measurement": "Log2 differential normalized TPM ratio compared to glucose", "setting": "[7]", "result": 0.8},
      {"measurement": "Log2 differential normalized TPM ratio compared to lactose", "setting": "[7]", "result": 0.3},
      {"measurement": "Transcripts per million (rpm)", "setting": "[7]", "result": 86.7, "unit": "rpm"},
      {"measurement": "Log2 differential normalized TPM ratio compared to glucose", "setting": "[8]", "result": 1.1},
      {"measurement": "Log2 differential normalized TPM ratio compared to lactose", "setting": "[8]", "result": 0.2},
      {"measurement": "Transcripts per million (rpm)", "setting": "[8]", "result": 3596.1, "unit": "rpm"},
      {"measurement": "Log2 differential normalized TPM ratio compared to glucose", "setting": "[9]", "result": 0.5},
      {"measurement": "Log2 differential normalized TPM ratio compared to lactose", "setting": "[9]", "result": 1.2},
      {"measurement": "Transcripts per million (rpm)", "setting": "[9]", "result": 70.4, "unit": "rpm"},
      {"measurement": "Log2 differential normalized TPM ratio compared to glucose", "setting": "[10]", "result": 0.3},
      {"measurement": "Log2 differential normalized TPM ratio compared to lactose", "setting": "[10]", "result": 0},
      {"measurement": "Transcripts per million (rpm)", "setting": "[10]", "result": 8.1, "unit": "rpm"},
      {"measurement": "Log2 differential normalized TPM ratio compared to glucose", "setting": "[11]", "result": 1.5},
      {"measurement": "Log2 differential normalized TPM ratio compared to lactose", "setting": "[11]", "result": 0.2},
      {"measurement": "Transcripts per million (rpm)", "setting": "[11]", "result": 160.2, "unit": "rpm"},
      {"measurement": "Log2 differential normalized TPM ratio compared to glucose", "setting": "[12]", "result": 0.1},
      {"measurement": "Log2 differential normalized TPM ratio compared to lactose", "setting": "[12]", "result": 2.5},
      {"measurement": "Transcripts per million (rpm)", "setting": "[12]", "result": 2.8, "unit": "rpm"},
      {"measurement": "Log2 differential normalized TPM ratio compared to glucose", "setting": "[13]", "result": 1.2},
      {"measurement": "Log2 differential normalized TPM ratio compared to lactose", "setting": "[13]", "result": 0.2},
      {"measurement": "Transcripts per million (rpm)", "setting": "[13]", "result": 301.8, "unit": "rpm"},
      {"measurement": "Log2 differential normalized TPM ratio compared to glucose", "setting": "[14]", "result": "−0.5"},
      {"measurement": "Log2 differential normalized TPM ratio compared to lactose", "setting": "[14]", "result": "−0.8"},
      {"measurement": "Transcripts per million (rpm)", "setting": "[14]", "result": 108.6, "unit": "rpm"},
      {"measurement": "Log2 differential normalized TPM ratio compared to glucose", "setting": "[15]", "result": 1.7},
      {"measurement": "Log2 differential normalized TPM ratio compared to lactose", "setting": "[15]", "result": 0.7},
      {"measurement": "Transcripts per million (rpm)", "setting": "[15]", "result": 654.9, "unit": "rpm"},
      {"measurement": "Log2 differential normalized TPM ratio compared to glucose", "setting": "[16]", "result": 0.1},
      {"measurement": "Log2 differential normalized TPM ratio compared to lactose", "setting": "[16]", "result": 0.3},
      {"measurement": "Transcripts per million (rpm)", "setting": "[16]", "result": 114.4, "unit": "rpm"},
      {"measurement": "Log2 differential normalized TPM ratio compared to glucose", "setting": "[17]", "result": 1.4},
      {"measurement": "Log2 differential normalized TPM ratio compared to lactose", "setting": "[17]", "result": 0.3},
      {"measurement": "Transcripts per million (rpm)", "setting": "[17]", "result": 5.9, "unit": "rpm"},
      {"measurement": "Log2 differential normalized TPM ratio compared to glucose", "setting": "[18]", "result": 3.8},
      {"measurement": "Log2 differential normalized TPM ratio compared to lactose", "setting": "[18]", "result": 0},
      {"measurement": "Transcripts per million (rpm)", "setting": "[18]", "result": 37.6, "unit": "rpm"},
      {"measurement": "Log2 differential normalized TPM ratio compared to glucose", "setting": "[19]", "result": 1.9},
      {"measurement": "Log2 differential normalized TPM ratio compared to lactose", "setting": "[19]", "result": "−3.7"},
      {"measurement": "Transcripts per million (rpm)", "setting": "[19]", "result": 55.9, "unit": "rpm"},
      {"measurement": "Log2 differential normalized TPM ratio compared to glucose", "setting": "[20]", "result": 1.8},
      {"measurement": "Log2 differential normalized TPM ratio compared to lactose", "setting": "[20]", "result": "−3.8"},
      {"measurement": "Transcripts per million (rpm)", "setting": "[20]", "result": 48.4, "unit": "rpm"},
      {"measurement": "Log2 differential normalized TPM ratio compared to glucose", "setting": "LBA1459 Galactokinase, COG G", "result": 0.8},
      {"measurement": "Log2 differential normalized TPM ratio compared to lactose", "setting": "LBA1459 Galactokinase, COG G", "result": "−3.9"},
      {"measurement": "Transcripts per million (rpm)", "setting": "LBA1459 Galactokinase, COG G", "result": 42.2, "unit": "rpm"},
      {"measurement": "Log2 differential normalized TPM ratio compared to glucose", "setting": "[21]", "result": "−0.1"},
      {"measurement": "Transcripts per million (rpm)", "setting": "[21]", "result": 16.8, "unit": "rpm"},
      {"measurement": "Log2 differential normalized TPM ratio compared to glucose", "setting": "[22]", "result": 0.1},
      {"measurement": "Log2 differential normalized TPM ratio compared to lactose", "setting": "[22]", "result": "−4.6"},
      {"measurement": "Transcripts per million (rpm)", "setting": "[22]", "result": 62.2, "unit": "rpm"},
      {"measurement": "Log2 differential normalized TPM ratio compared to glucose", "setting": "LBA1464 Transposase, COG L", "result": 0},
      {"measurement": "Log2 differential normalized TPM ratio compared to lactose", "setting": "LBA1464 Transposase, COG L", "result": "−2.4"},
      {"measurement": "Transcripts per million (rpm)", "setting": "LBA1464 Transposase, COG L", "result": 182.7, "unit": "rpm"},
      {"measurement": "Log2 differential normalized TPM ratio compared to glucose", "setting": "[23]", "result": "−0.1"},
      {"measurement": "Log2 differential normalized TPM ratio compared to lactose", "setting": "[23]", "result": "−3.2"},
      {"measurement": "Transcripts per million (rpm)", "setting": "[23]", "result": 52.9, "unit": "rpm"},
      {"measurement": "Log2 differential normalized TPM ratio compared to glucose", "setting": "[24]", "result": 1.5},
      {"measurement": "Log2 differential normalized TPM ratio compared to lactose", "setting": "[24]", "result": "−7.3"},
      {"measurement": "Transcripts per million (rpm)", "setting": "[24]", "result": 14.9, "unit": "rpm"},
      {"measurement": "Log2 differential normalized TPM ratio compared to glucose", "setting": "[25]", "result": 1},
      {"measurement": "Log2 differential normalized TPM ratio compared to lactose", "setting": "[25]", "result": "−5.4"},
      {"measurement": "Transcripts per million (rpm)", "setting": "[25]", "result": 43.3, "unit": "rpm"}
    ]}
  ]
}
